From patent US11091450B2, “Crystal of a caspase inhibitor” (Chia Tai Tianqing Pharmaceutical Group Co., Ltd., priority 2018, dated 2021)
Converted amounts (≈) assume the structure as drawn.

How the values were obtained:
[1] = biological target: T1, Caspase-3 (Homo sapiens, UniProt P42574); test: Caspase-3 Inhibitor Screening Kit (BioVision), fluorogenic substrate; format: biochemical; details: 30 min preincubation at 37° C., substrate 50 μM; read-out: Caspase-3 enzymatic activity (IC50)
T1 construct: purchased BioVision K153-100
T1 sequence (P42574 29-175 limits assumed): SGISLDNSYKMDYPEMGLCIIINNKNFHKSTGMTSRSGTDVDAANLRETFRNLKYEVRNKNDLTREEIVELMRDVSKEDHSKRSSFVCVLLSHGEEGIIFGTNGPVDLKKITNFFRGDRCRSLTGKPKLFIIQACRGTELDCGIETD
T1 sequence (P42574 176-277 limits assumed): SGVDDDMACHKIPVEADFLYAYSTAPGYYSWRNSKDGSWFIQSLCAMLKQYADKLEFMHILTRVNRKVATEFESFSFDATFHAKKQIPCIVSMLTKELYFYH
Description: (§1) Caspase Inhibitor Screening Kit for BioVision was used in this experiment to test the inhibitory activity of the test compound on Caspase.
(§2) • 1) Kit: • Caspase-1 Inhibitor Screening Kit (BioVision #K151-100) • Caspase-3 Inhibitor Screening Kit (BioVision #K153-100) • Caspase-8 Inhibitor Screening Kit (BioVision #K158-100) • Wherein, each caspase enzymatic experiment uses the reagents in corresponding kit thereof. Each enzyme was dissolved in 550 μl of the corresponding 2× reaction buffer, sub-packed and stored at −80° C., respectively. • 2) Black 384-well plate (PerkinElmer #6007279) • 3) Instrument: Multi-function microplate reader Molecular Devices (Model: SpectraMax M2e) Experimental Method: • 1) The compound of formula I-A was diluted to a 200* test concentration with DMSO via the multiple dilution, then to a 2* test concentration with ddH2O, and added to a 384-well experimental plate at 12.5 μl per well. […] After the substrate was added, the 384-well experimental plate was incubated at 37° C. for 30 minutes. • 4) The fluorescence intensity (excitation light wavelength was 400 nm, emission light wavelength was 505 nm) was measured by using a multi-function microplate reader. Fluorescence intensity was used to calculate the inhibitory effect of the compounds on Caspase. […]

[2] = biological target: T2, Caspase-1 (Homo sapiens, UniProt P29466); test: Caspase-1 Inhibitor Screening Kit (BioVision), fluorogenic substrate; format: biochemical; details: 30 min preincubation at 37° C., substrate 50 μM; read-out: Caspase-1 enzymatic activity (IC50)
T2 construct: purchased BioVision K151-100
T2 sequence (P29466 120-297 limits assumed): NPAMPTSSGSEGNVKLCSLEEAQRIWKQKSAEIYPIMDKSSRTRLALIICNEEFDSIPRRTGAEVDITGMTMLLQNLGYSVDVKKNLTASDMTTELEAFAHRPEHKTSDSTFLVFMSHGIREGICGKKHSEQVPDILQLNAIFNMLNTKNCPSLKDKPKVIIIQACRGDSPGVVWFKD
T2 sequence (P29466 317-404 limits assumed): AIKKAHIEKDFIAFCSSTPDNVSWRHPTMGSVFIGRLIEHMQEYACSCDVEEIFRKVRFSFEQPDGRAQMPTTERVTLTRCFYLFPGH
Description: as §1, §2

[3] = biological target: T3, Caspase-8 (Homo sapiens, UniProt Q14790); test: Caspase-8 Inhibitor Screening Kit (BioVision), fluorogenic substrate; format: biochemical; details: 30 min preincubation at 37° C., substrate 50 μM; read-out: Caspase-8 enzymatic activity (IC50)
T3 construct: purchased BioVision K158-100
Description: as §1, §2

[4] = Solid stability test of crystal IV (temperature, humidity, light; HPLC impurities); format: physicochemical
Description: 8 mg of crystal IV of the compound of formula I-A was taken, weighed accurately, placed in the sample vial and spread into a thin layer. The samples at day 0 were sealed with the bottle cap and further sealed with the sealing film, followed by storing in the refrigerator at −20° C. The stability of the samples was tested under 60° C., 92.5% RH, 25° C./60% RH, 40° C./75% RH, 60° C./75% RH and light conditions, respectively.
Analysis method: Agilent 1260 High Performance Liquid Chromatography equipped with DAD detector or Waters 2695 High Performance Liquid Chromatography equipped with PDA detector was used; chromatographic column: Waters Xselect CSH C18 (4.6 mm×150 mm, 3.5 μm), column temperature: 40° C., flow rate: 1.0 ml/min, detection wavelength: 215 nm, injection volume: 10 μL, sample concentration: 0.5 mg/mL, diluent: methanol, and the gradient of mobile phases in Table 9 was used for analysis.

[5] = Solubility test of crystal IV in different pH medium solutions; format: physicochemical; details: thermodynamic from solid, 37° C.
Description: 2 ml of pH medium solutions were transferred into 4 ml glass bottle respectively, and then 8 mg of crystal IV of the compound of formula I-A was added thereto. It was stirred and heated on a magnetic stirrer, and the temperature was kept at 37° C. After 4 hours and 24 hours, 1 mL of sample was taken and centrifuged rapidly, respectively. The pH value of the supernatant was determined, and the supernatant was diluted with diluent. The concentration was determined by HPLC.

[6] = aqueous buffer, pH = 4.5 Buffer, supernatant pH 4.67
[7] = aqueous buffer, pH = 5.5 Buffer, supernatant pH 5.55
[8] = aqueous buffer, pH = 6.0 Buffer, supernatant pH 6.04

T3 sequence (Q14790 217-374 limits assumed): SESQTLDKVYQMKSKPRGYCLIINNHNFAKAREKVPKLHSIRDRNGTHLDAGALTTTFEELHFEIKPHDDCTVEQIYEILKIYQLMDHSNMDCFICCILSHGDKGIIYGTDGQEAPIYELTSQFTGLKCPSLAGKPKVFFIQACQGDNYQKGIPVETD
T3 sequence (Q14790 385-479 limits assumed): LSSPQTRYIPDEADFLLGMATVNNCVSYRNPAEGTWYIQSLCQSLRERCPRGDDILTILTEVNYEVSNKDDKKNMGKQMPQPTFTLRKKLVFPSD

C[C@H](NC(=O)c1cc(-c2ccccc2Cl)on1)C(=O)N[C@@H](CC(=O)O)C(=O)COc1c(F)c(F)cc(F)c1F [Compound of formula I-A, (S)-3-((S)-2-(5-(2-chlorophenyl)isoxazol-3-carboxamido)propionamido)-4-oxo-5-(2,3,5,6-tetrafluorophenoxy)pentanoic acid]
IC50 [1]: 13 nM
IC50 [2]: 4.6 nM
IC50 [3]: 10.3 nM

C[C@H](NC(=O)c1cc(-c2ccccc2Cl)on1)C(=O)N[C@@H](CC(=O)O)C(=O)COc1c(F)c(F)cc(F)c1F [crystal IV, (S)-3-((S)-2-(5-(2-chlorophenyl)isoxazol-3-carboxamido)propionamido)-4-oxo-5-(2,3,5,6-tetrafluorophenoxy)pentanoic acid]
Appearance ([4]; 25° C./60% RH, 10 days): White solid powder
Total Impurities (%) ([4]; 25° C./60% RH, 10 days): 0.20%
Property ([4]; 25° C./92.5% Relative Humidity (Exposure)): White solid
Appearance ([4]; 40° C./75% RH, 10 days): White solid powder
Total Impurities (%) ([4]; 40° C./75% RH, 10 days): 0.19%
Property ([4]; 60° C. (Exposure)): White solid
Appearance ([4]; 60° C./75% RH, 10 days): White solid powder
Total Impurities (%) ([4]; 60° C./75% RH, 10 days): 0.48%
Property ([4]; Light): White solid
Crystal ([4]; crystal form after 25° C./60% RH, 10 days): Crystal IV
Crystal ([4]; crystal form after 25° C./92.5% Relative Humidity (Exposure)): Crystal IV
Crystal ([4]; crystal form after 40° C./75% RH, 10 days): Crystal IV
Crystal ([4]; crystal form after 60° C. (Exposure)): Crystal IV
Crystal ([4]; crystal form after 60° C./75% RH, 10 days): Crystal IV
Crystal ([4]; crystal form after Light): Crystal IV
total impurities produced ([4]; high temperature and high humidity conditions (summary of Table 10)): ≤ 0.5%
stability under high temperature and high humidity conditions ([4]; summary of Table 10): stable
hygroscopicity ([4]; summary of Table 11): low hygroscopicity
stability under high temperature and light conditions ([4]; summary of Table 11): good stability
solubility at 4 h ([5]; 0.01 N HCl buffer, simulated gastric fluid, 0.01N of HCl Buffer, supernatant pH 2.01): 5 µg/mL (≈ 8.74 µM)
solubility at 24 h ([5]; 0.01 N HCl buffer, simulated gastric fluid, 0.01N of HCl Buffer, supernatant pH 2.07): 6 µg/mL (≈ 10.5 µM)
solubility at 4 h ([5]; 0.1 N HCl buffer, simulated gastric fluid, 0.1N of HCl Buffer, supernatant pH 1.07): 5 µg/mL (≈ 8.74 µM)
solubility at 24 h ([5]; 0.1 N HCl buffer, simulated gastric fluid, 0.1N of HCl Buffer, supernatant pH 1.11): 6 µg/mL (≈ 10.5 µM)
solubility at 4 h ([5]; aqueous buffer, pH = 3.8 Buffer, supernatant pH 3.97): 7 µg/mL (≈ 12.2 µM)
solubility at 24 h ([5]; aqueous buffer, pH = 3.8 Buffer, supernatant pH 3.99): 8 µg/mL (≈ 14 µM)
solubility at 4 h [5, 6]: 16 µg/mL (≈ 28 µM)
solubility at 24 h [5, 6]: 16 µg/mL (≈ 28 µM)
solubility at 4 h [5, 7]: 268 µg/mL (≈ 469 µM)
solubility at 24 h [5, 7]: 254 µg/mL (≈ 444 µM)
solubility at 4 h [5, 8]: 372 µg/mL (≈ 651 µM)
solubility at 24 h [5, 8]: 340 µg/mL (≈ 595 µM)
solubility at 4 h ([5]; aqueous buffer, pH = 6.8 Buffer, supernatant pH 6.71): 775 µg/mL (≈ 1360 µM)
solubility at 4 h ([5]; aqueous buffer, pH = 7.4 Buffer, supernatant pH 7.28): 1700 µg/mL (≈ 2970 µM)
solubility at 24 h ([5]; aqueous buffer, pH = 7.4 Buffer, supernatant pH 7.24): 1620 µg/mL (≈ 2830 µM)
solubility at 24 h ([5]; pH 6.7, aqueous buffer, pH = 6.8 Buffer, supernatant pH 6.70): 702 µg/mL (≈ 1230 µM)
solubility at 4 h ([5]; Water, supernatant pH 7.83): 339 µg/mL (≈ 593 µM)
solubility at 24 h ([5]; Water, supernatant pH 7.34): 266 µg/mL (≈ 465 µM)
